One test deals with SARS-CoV-2. In words: Virus titer (plaque assay on VeroE6 cells) in organs of SARS-CoV-2 infected hamsters treated with letrozole or placebo. The settings on record: 0.18 mg kg-1 i.p. daily, 3 d p.i., compared to placebo. In kind it is in vivo, Syrian golden hamster.
The subject of the next test is MIP-1β. Also noted: species or system Syrian golden hamster. The settings on record: hamster, in vivo, ip.
In another test the test system is MIP-1α. Also noted: species or system Syrian golden hamster. To be noted: hamster, in vivo, ip.
Where [1] appears, read: SARS-CoV-2-infected female hamsters.
The mark [2] stands for this setting: SARS-CoV-2-infected male hamsters.

Structures are written as SMILES.

On to `N#Cc1ccc(C(c2ccc(C#N)cc2)n2cncn2)cc1` [letrozole], for which, in the test with SARS-CoV-2 (setting [1]), the “virus titer in brain” value is recorded as “lower virus titers”, the “virus titer in lungs” value is recorded as “lower virus titers” and the “virus titer in plasma” value was “lower virus titers”. Moreover, in the test on SARS-CoV-2 (setting [2]), the “virus titer in brain” value is given as “lower virus titers”, the “virus titer in lungs” value was “lower virus titers” and the “virus titer in testis” value is recorded as “lower virus titers”. Also, the “expression level of MIP-1β in lungs” value in the test with MIP-1β is “lower”. Further, the “expression level of MIP-1α in lungs” value with MIP-1α is “lower”.
